Laboratory results from publication PMC2843614, “Protein engineering of conger eel galectins by tracing of molecular evolution using probable ancestral mutants” (BMC Evolutionary Biology, 2010).
Where two headings read alike, the source gives them in different places.

How the values were obtained:
Assay in all cases: frontal affinity chromatography (FAC)
[1] = target: T1, congerin II (ConII) (Conger myriaster, UniProt Q9YIC2); assay type: binding
T1 construct: full length, 135 residues (natural form N-acetylated); proto-type galectin, dimer
From the text: frontal affinity chromatography (FAC) on congerin II (ConII)

[2] = target: T2, Con-anc (probable ancestral form of congerins); assay type: binding, synthetic construct; settings: labelled compound (pyridylaminated sugar)
T2 construct: recombinant from plasmid pTV-Con-anc in Escherichia coli JM109; differs from ConI at 31 residues; purified by HCl-treated Sepharose 4B and HiTrap Q
From the text: frontal affinity chromatography (FAC) on Con-anc (probable ancestral form of congerins)

[3] = target: T3, congerin I (ConI) (Conger myriaster, UniProt P26788); assay type: binding
T3 construct: full length, 136 residues (natural form N-acetylated); proto-type galectin, dimer
From the text: frontal affinity chromatography (FAC) on congerin I (ConI)

[4] = labelled compound (pyridylaminated sugar)

T1 sequence (Q9YIC2 2-136): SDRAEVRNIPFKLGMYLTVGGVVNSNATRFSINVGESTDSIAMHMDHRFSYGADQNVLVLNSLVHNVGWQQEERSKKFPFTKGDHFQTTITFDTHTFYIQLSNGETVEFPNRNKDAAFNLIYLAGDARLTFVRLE
T3 sequence (P26788 whole entry): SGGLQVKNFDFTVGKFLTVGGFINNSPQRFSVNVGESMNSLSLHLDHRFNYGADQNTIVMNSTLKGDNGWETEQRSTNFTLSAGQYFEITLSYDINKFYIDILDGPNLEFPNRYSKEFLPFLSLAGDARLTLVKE

| Compound | Kd [1, 4] | Kd [2] | Kd [1] | Kd [3] | Kd ([2]; read-out: Con-anc-L5 / Kd) | Kd ([2]; read-out: Con-anc-N/C/L5 / Kd) | Kd [3, 4] |
| --- | --- | --- | --- | --- | --- | --- | --- |
| GM3 (NeuGc) [compound 30] | 66 µM | 196 µM |  |  |  |  |  |
| CC(=O)N[C@H]1[C@H]([C@H](O)[C@H](O)CO)OC(O[C@H]2[C@@H](O)[C@@H](CO)O[C@@H](O[C@@H]([C@H](O)[C@@H](O)CNc3ccccn3)[C@H](O)CO)[C@@H]2O)(C(=O)O)C[C@@H]1O (stereo partly drawn) [compound 29] | 51 µM | 242 µM |  |  |  |  |  |
| CC(=O)N[C@H]1[C@H](O[C@H]2[C@@H](O)[C@@H](CO)O[C@@H](O[C@@H]([C@H](O)[C@@H](O)CNc3ccccn3)[C@H](O)CO)[C@@H]2O)O[C@H](CO)[C@@H](O[C@@H]2O[C@@H](C)[C@@H](O)[C@@H](O)[C@@H]2O)[C@@H]1O[C@@H]1O[C@H](CO)[C@H](O)[C@H](O)[C@H]1O [compound 44] |  | 55 µM | 24 µM | 4.4 µM | 3.9 µM |  |  |

Now from value to compound:

| Kd [1, 4] | Kd [2] | Kd [1] | Kd [3] | Kd ([2]; read-out: Con-anc-L5 / Kd) | Kd ([2]; read-out: Con-anc-N/C/L5 / Kd) | Kd [3, 4] | Compound |
| --- | --- | --- | --- | --- | --- | --- | --- |
|  | 171 µM | 122 µM | 13 µM |  |  |  | CC(=O)N[C@H]1[C@H](O[C@H]2[C@@H](O)[C@@H](CO)O[C@@H](O[C@@H]([C@H](O)[C@@H](O)CNc3ccccn3)[C@H](O)CO)[C@@H]2O)O[C@H](CO)[C@@H](O[C@@H]2O[C@H](CO)[C@H](O)[C@H](O)[C@H]2O)[C@@H]1O[C@@H]1O[C@@H](C)[C@@H](O)[C@@H](O)[C@@H]1O [compound 45, LNFP-III] |
| 42 µM | 56 µM |  |  |  | 2.5 µM | 17 µM | A-heptasaccharide [compound 48] |
|  | 44 µM | 37 µM | 9.4 µM |  |  |  | CC(=O)N[C@H]1[C@H](O[C@H]2[C@@H](O)[C@@H](CO)O[C@@H](O[C@@H]([C@H](O)[C@@H](O)CNc3ccccn3)[C@H](O)CO)[C@@H]2O)O[C@H](CO)[C@@H](O[C@@H]2O[C@@H](C)[C@@H](O)[C@@H](O)[C@@H]2O)[C@@H]1O[C@@H]1O[C@H](CO)[C@H](O)[C@H](O)[C@H]1O[C@@H]1O[C@@H](C)[C@@H](O)[C@@H](O)[C@@H]1O [compound 46] |
